{"source": "patent US20210228523A1", "about": "“MODULATORS OF SESTRIN-GATOR2 INTERACTION AND USES THEREOF” (Navitor Pharmaceuticals, Inc., priority 2017, published 2021)", "key": {"mTORC1": {"system": "mTORC1", "test": "Western blot of pS6 in multiple regions of the rat brain", "type": "in vivo", "settings": "Example C; NV-5138 160 mg/kg oral; 1 hr post-dose; ad libitum access to food", "method": "Study Design: Ten (10) male rats weighing between 175 and 200 g were randomized into 2 study groups (n=5/group), following a 5-day acclimation period. Group 1 received a single administration of Veh by oral gavage and group 2 received a single administration of NV-5138 (160 mg/kg prepared in Veh) by oral gavage. One hour following administration, rats were sacrificed by conscious decapitation, plasma was collected for analysis of NV-5138 exposure in addition to the isolation of the PFC, hippocampus, striatum, neocortex and cerebellum by microdissection. Total protein extracts were prepared from the harvested tissues and submitted to WB analysis followed by quantitative analysis of selected mTORC1 substrates.\nFormulation of NV-5138 (160 mg/ml): NV-5138 (Navitor, Lot #09) was prepared by dissolving in Veh at a concentration of 160 mg/mL. […]\nWestern Blot Analysis: Synaptosomes preparations (15 μg of total protein) were loaded and separated on NuPAGE 4-12% Bis-Tris gels and transferred to PVDF membrane (Immobilon-FL PVDF membrane, Millipore) using CAPS Buffer (10 mM 3-(Cyclohexylamino)-1-propanesulfonic acid, 12.5% Ethanol pH=10). […] Signals were quantified using the Odyssey Infrared Imaging System (LI-COR Bioscience). The resulting densitometric readings were used to generate a ratio of phopho-protein to α-tubulin. […]"}, "[1]": {"system": "layer V pyramidal neurons in PFC", "test": "Dendritic spine density and morphology analysis (two-photon imaging)", "type": "in vivo, rat", "settings": "Example H; NV-5138 160 mg/kg oral single dose; 24 hr", "method": "Study Design: Sixteen (16) male rats weighing between 175 and 200 g were randomized into 2 study groups (n=8), following a 5-day acclimation period. On study day 0, rats received a single dose of either NV vehicle (Veh, 0.5% methylcellulose/0.1% Tween-80) or NV-5138 (160 mg/kg), by oral gavage. On day 1, 24 hrs after dosing, rats were sacrificed, and brain slices were prepared and subjected to whole cell patch clamp recording of layer V pyramidal neurons in PFC.\nSpine Density Analysis. Labeled neurons within layer V of anterior cingulate (Cg1) and prelimbic mPFC (Cg3) were imaged with a two-photon Ti:sapphire laser scanning system for analysis of spine density and morphology (810 nanometers; Mai Tai, Spectra Physics, Mountain View, Calif.) coupled to direct detection Radiance 2000 BioRad laser scanner (Zeiss Micromaging, Thornwood, N.Y.) mounted on a Olympus BX50WI microscope, using a 60× (0.9 numerical aperture) water-immersion objective. This includes the total number of spines on proximal and distal tufts of layer V neurons, as well as the spine head diameter, and indication of spine maturation. The length of apical tuft branch segments is determined within the 3D matrix of each Z-stack by using Neurolucida 10.2 (MicroBrightField). Spine density and spine head diameter analysis are done with the Autospine module of Neurolucida Explorer (version 10.2) on the raw image stacks (2-5 optical sections, 1 μm apart). Spine density and segmentation (beading) were sampled in three zones: tips of tuft branches as they approach the pial membrane, intermediate dendrites approximately midway between the pial membrane and bifurcation of apical trunk, and proximal tuft dendrites just distal to the bifurcation. Results were expressed in terms of total dendritic length, spine density, and segmentation density. Results were expressed in terms of spine density per 10 μm."}}}
{"smiles": "CC(C)(C[C@H](N)C(=O)O)C(F)F", "note": "[NV-5138]", "values": [{"measurement": "activation of mTORC1 (pS6) in PFC, striatum, hippocampus, neocortex and cerebellum", "setting": "mTORC1", "value": "significant activation of mTORC1 in most, but not all of the major regions of the brain"}, {"measurement": "mushroom spine subtype density", "setting": "[1]", "value": "specific increase"}, {"measurement": "overall spine density in layer V pyramidal neuron dendrites", "setting": "[1]", "value": "significant increase"}, {"measurement": "thin spine subtype density", "setting": "[1]", "value": "specific increase"}]}
